Results on 15 compounds are retold here after ChEMBL document CHEMBL1139118, “A novel, non-substrate-based series of glycine type 1 transporter inhibitors derived from high-throughput screening” (Bioorg Med Chem Lett, 2007).

As a reminder, the Ki is a dissociation constant, usually derived from enzyme kinetics or from competition with a known ligand. What is called inhibition is how much of the control response was suppressed. For orientation: half-life means the time in which the quantity being followed falls by half. As usually defined, the IC50 is the point on the concentration scale where inhibition reaches its midpoint.

Where only a bound is given, the exact number is not on record here.

Series [1] deals with T1, Sodium- and chloride-dependent glycine transporter 1 (Homo sapiens, UniProt P48067).
T1 sequence (P48067 whole entry): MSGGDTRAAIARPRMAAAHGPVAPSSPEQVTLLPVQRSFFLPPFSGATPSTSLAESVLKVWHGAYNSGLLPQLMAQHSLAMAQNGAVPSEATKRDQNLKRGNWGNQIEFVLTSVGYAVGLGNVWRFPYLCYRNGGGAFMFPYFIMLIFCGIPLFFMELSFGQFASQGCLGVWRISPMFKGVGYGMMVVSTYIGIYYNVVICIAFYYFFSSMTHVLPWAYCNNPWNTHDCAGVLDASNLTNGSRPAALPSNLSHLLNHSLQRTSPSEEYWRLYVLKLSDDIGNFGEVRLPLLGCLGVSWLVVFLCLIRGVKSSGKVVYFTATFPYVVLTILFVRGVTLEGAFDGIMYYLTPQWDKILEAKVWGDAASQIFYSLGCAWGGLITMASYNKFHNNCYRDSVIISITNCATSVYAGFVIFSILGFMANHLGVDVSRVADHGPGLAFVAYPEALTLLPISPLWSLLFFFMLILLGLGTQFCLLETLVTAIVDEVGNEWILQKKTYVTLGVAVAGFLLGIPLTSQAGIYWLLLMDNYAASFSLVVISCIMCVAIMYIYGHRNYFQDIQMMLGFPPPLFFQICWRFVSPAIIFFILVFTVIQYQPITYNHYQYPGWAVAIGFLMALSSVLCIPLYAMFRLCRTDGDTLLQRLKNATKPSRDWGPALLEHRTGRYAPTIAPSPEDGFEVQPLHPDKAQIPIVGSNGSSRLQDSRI
The experiment in a line: Displacement of [3H]NPTS from human GlyT1C expressed in HEK293 cells. Type of series: cell-based.

The target in series [2] is CYP2D6 (Homo sapiens, UniProt P10635). Put plainly: Inhibition of human recombinant CYP2D6 at 1.5 uM. The series is classed as ADME.
A short description of series [3]: Metabolic stability in human liver microsomes assessed as half life. The series is classed as ADME, Microsome. Background: Microsomes from liver hold many membrane-bound enzymes, among them those of drug oxidation.
The target of series [4] is 5-hydroxytryptamine receptor 1B (Homo sapiens, UniProt P28222). Put plainly: Displacement of [3H]5-hydroxytrytamine from human 5HT1B receptor expressed in HEK293 cells. Type of series: cell-based. For orientation: In a radioligand displacement assay an active substance lowers the binding of a labelled ligand.
Series [5] addresses Voltage-gated inwardly rectifying potassium channel KCNH2 (Homo sapiens, UniProt Q12809). Put plainly: Displacement of [3H]dofetilide from human ERG channel expressed in HEK293 cells.
Series [6] concerns the target T2, Sodium- and chloride-dependent glycine transporter 2 (Homo sapiens, UniProt Q9Y345).
T2 sequence (Q9Y345 whole entry): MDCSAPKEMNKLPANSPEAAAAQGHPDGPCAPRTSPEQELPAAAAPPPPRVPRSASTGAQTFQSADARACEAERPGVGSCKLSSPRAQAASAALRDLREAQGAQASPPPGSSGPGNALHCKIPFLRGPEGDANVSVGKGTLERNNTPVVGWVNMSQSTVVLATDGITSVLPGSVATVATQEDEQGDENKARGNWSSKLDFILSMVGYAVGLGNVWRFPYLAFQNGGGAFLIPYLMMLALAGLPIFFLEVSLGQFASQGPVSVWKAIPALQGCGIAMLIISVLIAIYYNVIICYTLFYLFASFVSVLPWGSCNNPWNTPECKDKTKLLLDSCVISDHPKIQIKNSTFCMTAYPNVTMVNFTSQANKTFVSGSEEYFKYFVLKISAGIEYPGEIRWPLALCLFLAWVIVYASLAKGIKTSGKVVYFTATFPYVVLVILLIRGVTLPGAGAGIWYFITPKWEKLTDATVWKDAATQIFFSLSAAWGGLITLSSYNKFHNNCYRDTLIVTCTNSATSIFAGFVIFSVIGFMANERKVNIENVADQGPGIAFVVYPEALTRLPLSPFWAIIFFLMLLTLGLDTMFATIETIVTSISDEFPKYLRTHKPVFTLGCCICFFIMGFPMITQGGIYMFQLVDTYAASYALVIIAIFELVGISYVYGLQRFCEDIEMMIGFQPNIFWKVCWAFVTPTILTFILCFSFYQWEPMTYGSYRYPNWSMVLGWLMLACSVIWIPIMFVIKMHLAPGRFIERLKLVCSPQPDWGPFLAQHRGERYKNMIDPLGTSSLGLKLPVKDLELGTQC
Put plainly: Inhibition of [3H]glycine uptake at human GlyT2 expressed in HEK293 cells. The series is classed as cell-based.

Chain of 5-hydroxytryptamine receptor 1B (P28222 whole entry): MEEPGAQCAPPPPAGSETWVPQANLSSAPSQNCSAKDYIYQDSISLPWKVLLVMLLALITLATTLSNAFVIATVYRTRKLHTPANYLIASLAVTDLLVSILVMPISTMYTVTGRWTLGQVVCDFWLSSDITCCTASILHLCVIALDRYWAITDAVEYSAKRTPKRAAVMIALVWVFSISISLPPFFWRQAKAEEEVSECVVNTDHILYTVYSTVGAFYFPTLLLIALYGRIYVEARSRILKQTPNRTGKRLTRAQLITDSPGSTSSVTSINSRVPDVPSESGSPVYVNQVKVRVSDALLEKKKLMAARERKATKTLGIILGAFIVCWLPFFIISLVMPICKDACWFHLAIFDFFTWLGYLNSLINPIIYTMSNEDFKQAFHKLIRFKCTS
Chain of Voltage-gated inwardly rectifying potassium channel KCNH2 (Q12809 whole entry): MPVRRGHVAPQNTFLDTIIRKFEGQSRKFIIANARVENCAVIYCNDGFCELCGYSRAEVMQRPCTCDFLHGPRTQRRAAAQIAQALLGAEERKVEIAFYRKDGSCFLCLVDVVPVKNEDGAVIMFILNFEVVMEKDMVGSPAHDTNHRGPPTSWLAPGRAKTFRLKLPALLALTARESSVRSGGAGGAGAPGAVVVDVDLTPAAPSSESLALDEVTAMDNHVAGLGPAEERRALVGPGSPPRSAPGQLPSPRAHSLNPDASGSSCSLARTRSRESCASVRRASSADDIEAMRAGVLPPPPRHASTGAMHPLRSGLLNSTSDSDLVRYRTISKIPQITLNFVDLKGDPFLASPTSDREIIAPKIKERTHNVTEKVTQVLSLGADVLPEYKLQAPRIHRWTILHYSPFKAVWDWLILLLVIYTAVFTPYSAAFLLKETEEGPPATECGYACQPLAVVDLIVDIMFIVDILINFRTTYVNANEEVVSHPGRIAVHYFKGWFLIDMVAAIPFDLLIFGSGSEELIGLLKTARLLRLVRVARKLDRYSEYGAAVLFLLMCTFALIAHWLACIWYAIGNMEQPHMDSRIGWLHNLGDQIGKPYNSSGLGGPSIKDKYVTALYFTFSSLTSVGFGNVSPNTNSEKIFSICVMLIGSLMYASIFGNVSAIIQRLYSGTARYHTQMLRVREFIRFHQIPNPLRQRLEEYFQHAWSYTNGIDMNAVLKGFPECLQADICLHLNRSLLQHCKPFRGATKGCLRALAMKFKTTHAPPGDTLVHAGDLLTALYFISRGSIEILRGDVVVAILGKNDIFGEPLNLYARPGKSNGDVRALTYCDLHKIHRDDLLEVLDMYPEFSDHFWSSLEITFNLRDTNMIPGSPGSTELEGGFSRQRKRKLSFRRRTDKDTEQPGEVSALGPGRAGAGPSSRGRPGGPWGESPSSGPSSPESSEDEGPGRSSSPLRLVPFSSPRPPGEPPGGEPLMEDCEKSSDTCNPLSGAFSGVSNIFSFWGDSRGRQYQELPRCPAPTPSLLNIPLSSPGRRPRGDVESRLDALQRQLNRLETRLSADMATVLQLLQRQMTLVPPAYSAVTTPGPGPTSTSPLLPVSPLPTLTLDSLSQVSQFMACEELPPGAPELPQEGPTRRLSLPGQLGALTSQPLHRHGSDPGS
Chain of CYP2D6 (P10635 whole entry): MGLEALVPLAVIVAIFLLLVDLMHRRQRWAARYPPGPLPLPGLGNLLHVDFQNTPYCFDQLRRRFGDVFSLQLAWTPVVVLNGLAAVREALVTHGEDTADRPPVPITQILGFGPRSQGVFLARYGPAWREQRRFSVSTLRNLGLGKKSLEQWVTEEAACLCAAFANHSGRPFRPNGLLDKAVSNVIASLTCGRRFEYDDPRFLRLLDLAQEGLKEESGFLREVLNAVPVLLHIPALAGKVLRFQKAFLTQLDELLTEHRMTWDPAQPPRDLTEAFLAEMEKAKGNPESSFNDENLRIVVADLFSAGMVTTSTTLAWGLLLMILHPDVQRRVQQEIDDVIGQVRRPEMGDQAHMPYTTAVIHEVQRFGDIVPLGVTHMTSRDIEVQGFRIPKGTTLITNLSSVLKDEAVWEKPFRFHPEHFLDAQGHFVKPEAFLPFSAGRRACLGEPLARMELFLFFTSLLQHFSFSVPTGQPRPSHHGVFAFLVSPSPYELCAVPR

In the case of `CC1CC(N2CCN(C3CCc4ccc(OCc5noc(-c6ccc(Cl)cc6)n5)cc43)CC2)CC1C` (configuration not stated), the Ki turned out to be 0.134 µM in series [1] and 0.414 µM in series [4]. Further, the inhibition at 1.5 µM in series [2] was determined as 29%. For the same compound, the half-life in series [3] amounted to 7 min.
For `OCC1CCCN(CCCC2CCCc3ccc(OCc4noc(-c5ccc(Cl)cc5)n4)cc32)C1` (stereo in doubt; 8B), the IC50 in series [1] was 0.024 µM. Affinity in series [5] was put at a Ki of 0.214 µM.
The compound `Fc1ccccc1-c1nc(COc2ccc3c(c2)C(N2CCN(C4CCCC4)CC2)CC3)no1` (configuration not stated) yielded a concentration for half-maximal inhibition (IC50) in series [6] of 0.531 µM. The compound also gave an inhibition constant (Ki) in series [1] of 0.0668 µM. Besides, the inhibition at 1.5 µM in series [2] was determined as 94%. Besides, in series [3], the half-life is 12 min.
For `OCC1(NCCCC2CCc3ccc(OCc4noc(-c5ccc(Cl)cc5)n4)cc32)CCCC1` (configuration not stated), the Ki is 0.108 µM in series [1], 0.525 µM in series [5] and > 0.3 µM in series [4]. Moreover, the inhibition at 1.5 µM in series [2] was determined as 70%. For the same compound, the half-life in series [3] is 12 min.
On to `OCC1CCCN(CCCC2CCCc3ccc(OCc4noc(-c5ccc(Cl)cc5)n4)cc32)C1` (stereo in doubt; 8D), for which the IC50 in series [1] was 0.026 µM. This compound also gave an inhibition constant (Ki) in series [5] of 0.206 µM.
On to `CN1CCN(c2cccc3ccc(OCc4noc(-c5ccc(Cl)cc5)n4)cc23)CC1`, for which the Ki in series [1] was 0.5 µM; in series [4] it was < 0.001 µM. Further, in series [2], the inhibition at 1.5 µM worked out at 75%. The half-life in series [3] was found to be 22 min.
Turning to `CC(C)N1CCN(C2CCc3ccc(OCc4noc(-c5ccc(Cl)cc5)n4)cc32)CC1` (configuration not stated), the Ki is 0.394 µM in series [1], 0.0981 µM in series [5] and 0.031 µM in series [4]. Besides, the inhibition at 1.5 µM in series [2] was 43%. The half-life in series [3] amounted to 13 min.
For `OCC1CCCN(CCCC2CCCc3ccc(OCc4noc(-c5ccc(Cl)cc5)n4)cc32)C1` (stereo in doubt; 8A), in series [1], the half-inhibitory concentration (IC50) was 0.038 µM. The same compound came in with an inhibitory constant (Ki) in series [5] of 0.381 µM.
`OCC1CCCN(CCCC2CCCc3ccc(OCc4ccc(-c5ccccc5F)cn4)cc32)C1` (configuration not stated): the 50% inhibitory concentration (IC50) in series [6] came out at 0.401 µM. Also, the inhibitory constant (Ki) stood at 0.011 µM in series [1] and 0.41 µM in series [5]. For the same compound, the inhibition at 1.5 µM in series [2] came out at 30%. The half-life in series [3] worked out at 24 min.
In turn, `OCC1(N2CCN(C3CCc4ccc(OCc5noc(-c6ccccc6F)n5)cc43)CC2)CCCC1` (configuration not stated) came in with an IC50 in series [6] of 0.0315 µM. Moreover, in series [1], the affinity, expressed as Ki, was 0.0614 µM. In addition, the inhibition at 1.5 µM in series [2] is 85%. For the same compound, the half-life in series [3] was determined as 14 min.
Take `OCC1(N2CCN(C3CCc4ccc(OCc5noc(-c6ccc(Cl)cc6)n5)cc43)CC2)CCCC1` (configuration not stated): the inhibition at 1.5 µM in series [2] came to 47%. The inhibitory constant (Ki) in series [4] is 1.49 µM.
In series [6], `CCN(Cc1cccc(OCc2noc(-c3ccccc3F)n2)c1)C1CCN(C2CC(C)C(C)C2)C1` (configuration not stated) gave an IC50 of 0.857 µM. Also, the Ki in series [1] amounted to 0.0853 µM; in series [5], 0.222 µM. Besides, the inhibition at 1.5 µM in series [2] was found to be 84%. Also, the half-life in series [3] came out at 26 min.
In turn, `OCC1CCCN(CCCC2CCCc3ccc(OCc4noc(-c5ccccc5F)n4)cc32)C1` (configuration not stated) yielded a half-inhibitory concentration (IC50) in series [6] of 0.385 µM. Further, the Ki in series [1] stood at 0.0102 µM; in series [5] it was 1.3 µM. Also, the inhibition at 1.5 µM in series [2] is 43%. For the same compound, the half-life in series [3] amounted to 17 min.
In series [1], `OCC1CCCN(CCCC2CCCc3ccc(OCc4noc(-c5ccc(Cl)cc5)n4)cc32)C1` (stereo in doubt; 8C) came in with an IC50 of 0.031 µM. The Ki in series [5] is 0.219 µM.
In series [6], `OCC1CCCN(CCCC2CCCc3ccc(OCc4noc(-c5ccc(Cl)cc5)n4)cc32)C1` (stereo in doubt; 8) returned a concentration for half-maximal inhibition (IC50) of 0.319 µM. In addition, the Ki is 0.0159 µM in series [1], 0.271 µM in series [5] and > 1 µM in series [4]. Besides, the inhibition at 1.5 µM in series [2] was determined as 96%. In addition, the half-life in series [3] was 22 min.
